Data reported in ChEMBL document CHEMBL1140565, “Dipeptidyl alpha-fluorovinyl Michael acceptors: synthesis and activity against cysteine proteases” (Bioorg Med Chem Lett, 2007).

What was measured:
Leishmania mexicana [1] = experiment: Inhibition of Leishmania mexicana cysteine protease CBP2.8deltaCTE at 20 ug/mL
Leishmania mexicana [2] = experiment: Inhibition of Leishmania mexicana cysteine protease CBP2.8deltaCTE at 2 ug/mL

inhibition (Leishmania mexicana [1]) [%]	inhibition (Leishmania mexicana [2]) [%]	Structure (SMILES)
97	71.3	O=C(N[C@H](/C=C/S(=O)(=O)c1ccccc1)Cc1ccccc1)[C@H](Cc1ccccc1)NC(=O)N1CCOCC1
15.1	0	CC(C)(C)OC(=O)N[C@@H](Cc1ccccc1)/C(SCCc1ccccc1)=C(/F)S(=O)(=O)c1ccccc1
38.7	1.1	CC(C)(C)OC(=O)N[C@@H](Cc1ccccc1)/C(SCCc1ccccc1)=C(\F)S(=O)(=O)c1ccccc1
